One data set addresses JAK2 (a.a. 828-1132) (Homo sapiens (Human), UniProt O60674). Nature of the data set: In vitro JAK kinase assay (HTRF), JAK2 relative to JAK1. The data set is classed as biochemical. The following applies: IC50 ratio, 1 mM ATP. As to the method:
The catalytic activity of JAK1, JAK2 or JAK3 was assayed by measuring the phosphorylation of a biotinylated peptide. The phosphorylated peptide was detected by homogenous time resolved fluorescence (HTRF). […] Reactions are carried out at room temperature for 1 hour and then stopped with 20 μL 45 mM EDTA, 300 nM SA-APC, 6 nM Eu-Py20 in assay buffer (Perkin Elmer, Boston, Mass.). Binding to the Europium labeled antibody takes place for 40 minutes and HTRF signal was measured on a Fusion plate reader (Perkin Elmer, Boston, Mass.).
(In general: In TR-FRET formats the signal depends on donor and acceptor labels being close together.)

Data set [1] deals with IL-6 stimulated phosphorylation of STAT3 in PBMCs. Nature of the data set: IL-6 stimulated STAT3 phosphorylation in human PBMC. The data set is classed as cell-based. The following applies: read-out: in vitro IC50 for suppression of IL-6 stimulated phosphorylation of STAT3 in PBMCs (JAK1 inhibition). The procedure:
Two different assays can be used to understand the functional activity of JAK1 inhibition. The first is a standard cell based assay and the other using whole blood. The former is conducted using human peripheral blood mononuclear cells (PBMC); briefly, the cells are stimulated with IL-6 to increase JAK1 activity, which is measured via phosphorylated STAT3. As increasing concentrations of Compound 1 are added, a corresponding decrease in phosphorylated STAT3 is observed. This assay is appropriate to assess JAK1 activity and/or the inhibitory activity of Compound 1 in samples that are devoid of serum proteins, e.g., feces samples.

Data set [2] can be described thus: Ex vivo colon permeation study (Ussing diffusion chamber / tube), LSC. Type of data set: in vitro ADME, human. The following applies: healthy and UC colon, 100 and 1000 nM, 1 h; LLOQ 2 times background (21 dpm). As to the method: Methods: Compound 1 concentrations in plasma and feces (colonic surrogate) were determined following a single sustained release 25 mg oral dose (see, e.g., Example B, 25 mg SR composition). Compound 1 concentrations in plasma following a single 100 mg dose were also determined in a separate study (see, e.g., Example C for measuring concentrations of Compound 1 in plasma). Ex vivo study: Colon tissue samples from healthy and UC subjects (2/group) were mounted on a vertical Ussing diffusion chamber. [^14C]Compound 1 was applied to the apical side of the chamber at 100 and 1000 nM and incubated for 1 h. Samples were collected from the donor and receiver sides for determination of Compound 1 concentration. The colonic tissue was snap frozen for quantitative autoradiography.
A small piece of two colon samples from two healthy and UC subjects (total eight samples) were provided by Analytical Biological Services Inc. (Wilmington, Del.) and stored at −70° C. until use.
Dose formulations, i.e., 100 nM and 1000 nM, were prepared on the day of the experiment for all tissues in the study. [^14C]Compound 1 (1.06 mg) was dissolved in dimethyl sulfoxide (DMSO; 1.514 mL) to produce a 1 mM stock solution (0.7 mg/mL). […]
[^14C]Compound 1 concentrations in both donor and receiver sides were analyzed by LSC. The lower limit of quantitation (LLOQ) was determined as 2 times the background (21 dpm).

Data set [3] has as its system TPO-induced STAT3 phosphorylation. Nature of the data set: Ex vivo TPO-induced STAT3 phosphorylation in dosed patients (marker of JAK2 inhibition). Also on record: species or system human. As to the method:
The systemic effects of Compound 1 have been studied in the auto-immune diseases RA and Ps. Inhibition of phosphorylation of STAT3 following stimulation with IL-6, a marker of AK1 inhibition, and TPO, a marker of JAK2 inhibition was measured in both studies. In patients with Ps doses of 100 mg QD, 200 mg QD, 200 mg BID, and 600 mg QD were studied.

In data set [4] the test system is IL-10 knockout mouse model of spontaneous colitis. Nature of the data set: IL-10 knockout mouse model of spontaneous colitis. The data set is classed as in vivo. From the text:
The interleukin-10 (IL-10) knockout (KO) mouse model mirrors the multifactorial nature of inflammatory bowel disease (IBD), such as ulcerative colitis and Crohn's disease, as IL-10 KO mice, BALB/cAnNTac-1110^em7Tac, spontaneously develop colitis. Colitis in IL-10 KO mice results from an aberrant response of CD4^+ T helper 1-like T cells and an excessive secretion of the proinflammatory cytokines that signal through the Janus kinase/signal transducers and activators of transcription (JAK/STAT) pathway. Compound 1 is a potent JAK1 inhibitor with 22 to >500-fold selectivity for JAK2, JAK3 and TYK2, and is currently being investigated as a monotherapy in a clinical trial for moderate-to-severe ulcerative colitis.
Female IL-10 homozygote knockout mice on the BALB/c strain background were provided by Taconic (USA). From 6 weeks of age onwards, Compound 1 and vehicle (10 mL/kg) were administered by oral gavage twice daily. Diarrhea was quantified on a 0-3 rating scale, (0=normal; 1=soft but still formed; 2=very soft; 3=diarrhea). Mice were euthanized by CO2 asphyxiation and colon length and weight measured. Tissue pathology was scored on a scale of 0 to 10 based on the following criteria: Lymphocytic infiltrate in the mucosa and the gut associated lymphoid tissue located in the lamina propria/submucosa, mucosal erosions/ulcerations, and transmural inflammation. Body weight, stool consistency, fecal occult blood and rectal bleeding were scored. The incidence of rectal prolapse was recorded.

Setting [5] is: 30 mg/kg oral twice daily, vs vehicle.

Entries after “also recorded” stand apart in the source; their conditions may differ.

The source of these data is patent publication US11596632B2, “JAK1 pathway inhibitors for the treatment of gastrointestinal disease” (Incyte Corporation, priority 2018, dated 2023).

JAK2 (a.a. 828-1132), sequence (O60674 828-1132): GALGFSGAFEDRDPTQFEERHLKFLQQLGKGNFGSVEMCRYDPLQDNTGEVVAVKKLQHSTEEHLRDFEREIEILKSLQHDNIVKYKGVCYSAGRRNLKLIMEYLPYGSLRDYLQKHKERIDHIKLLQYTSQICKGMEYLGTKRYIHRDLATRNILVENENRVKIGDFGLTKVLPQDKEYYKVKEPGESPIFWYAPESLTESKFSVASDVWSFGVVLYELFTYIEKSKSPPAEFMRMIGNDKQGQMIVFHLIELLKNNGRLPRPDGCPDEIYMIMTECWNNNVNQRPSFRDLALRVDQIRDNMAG

By IC50 is commonly meant the concentration at which inhibition is half-maximal. As to `N#CCC1(n2cc(-c3ncnc4[nH]ccc34)cn2)CN(C2CCN(C(=O)c3ccnc(C(F)(F)F)c3F)CC2)C1` [Compound 1, {1-{1-[3-Fluoro-2-(trifluoromethyl)isonicotinoyl]piperidin-4-yl}-3-[4-(7H-pyrrolo[2,3-d]pyrimidin-4-yl)-1H-pyrazol-1-yl]azetidin-3-yl}acetonitrile], the JAK2/JAK1 on JAK2 (a.a. 828-1132) is given as above 10. For the same compound, in data set [1], the IC50 turned out to be 58 nM. Besides, the “radioactivity / concentration in basolateral side (receiver compartment)” value in data set [2] is reported as “no Compound 1 related radioactivity was detected from the receiver side”. The “TPO induced pSTAT3 inhibition” value in data set [3] (RA patients, 100 mg QD to 600 mg QD, Cycle 1 Day 15) is “general trend of increasing TPO induced pSTAT3 inhibition”. For the same compound, the “inhibition of pSTAT3 in response to TPO” value in data set [3] (psoriasis patients, 100 mg QD, 200 mg QD, and 200 mg BID) is listed as “no significant inhibition of pSTAT3”. Besides, in data set [4] (30 mg/kg oral twice daily), the “colitis / disease onset” value was “inhibited disease onset; also recorded: significantly (p<0.001) delayed colitis onset” and the disease-associated weight loss entry is “modulated disease-associated weight loss”. Moreover, in data set [4] (setting [5]), the colon structural pathology entry was “significant (p<0.01) reduction in colon structural pathology”; the “cumulative clinical disease score (symptoms)” value is listed as “reduces symptoms; also recorded: significantly (p<0.0001) reduced”; the “incidence of rectal prolapse” value is “significantly (p<0.01) lower”; the “lymphocytic infiltration and transmural inflammation” value is reported as “significantly (p<0.01) decreased”. For the same compound, the “gene expression in the colon” value in data set [4] (oral, vs vehicle) is “differential gene expression profiles in the colon”. The colon morphology result in data set [4] (systemic (oral) delivery) was “significant protective effects on colon morphology”.
